Molecular target: SARS2 M^pro (Severe acute respiratory syndrome coronavirus 2, UniProt P0DTD1, P3395H)
Type: biochemical, SARS-CoV-2

Structure (SMILES) | % inhibition (20 µM) biochemical [%]
CCc1cc2c3c(c1)C1(C(=O)N3C(C)(C)C=C2C)C(C#N)=C(N)Oc2[nH]c(=O)[nH]c(=O)c21 (stereo not drawn) [MWAC-0001786, CCc1cc2C(=CC(C)(C)N3C(=O)C4(C(=C(N)OC5=C4C(=O)NC(=O)N5)C#N)c(c1)c23)C] | 4
CC(C)(C)N1C(=O)c2ccc(C(=O)Nc3cccc(O)c3)cc2C1=O [MWAC-0001722, CC(C)(C)N1C(=O)c2ccc(cc2C1=O)C(=O)Nc3cccc(O)c3] | 5.66
O=C1/C(=C/c2cccnc2)SC(=S)N1Cc1cccnc1 [MWAC-0001816, O=C1N(Cc2cccnc2)C(=S)S/C/1=C\c3cccnc3] | 43
CCCN1C(=O)C(O)(CC(=O)c2ccccc2OC)c2cc(Br)ccc21 (stereo not drawn) [MWAC-0001769, CCCN1C(=O)C(O)(CC(=O)c2ccccc2OC)c3cc(Br)ccc13] | 2.64
COc1ccc2c(=O)cc(-c3ccc4c(c3)OCCO4)oc2c1 [MWAC-0001860, COc1ccc2C(=O)C=C(Oc2c1)c3ccc4OCCOc4c3] | 100
Cc1ccc(Cn2cc(SCC(=O)NCc3ccco3)c3ccccc32)cc1 [MWAC-0001818, Cc1ccc(Cn2cc(SCC(=O)NCc3occc3)c4ccccc24)cc1] | 3.38
Cc1noc(N)c1C(=O)Nc1ccc(C(C)(C)C)cc1 [MWAC-0001886, Cc1noc(N)c1C(=O)Nc2ccc(cc2)C(C)(C)C] | 0
Cc1cc(C(=O)CCl)c(C)n1CCc1cccs1 [MWAC-0001825, Cc1cc(C(=O)CCl)c(C)n1CCc2cccs2] | 56
CCc1c(C)sc(NC(=O)CCc2ccccc2)c1C(N)=O [MWAC-0001812, CCc1c(C)sc(NC(=O)CCc2ccccc2)c1C(=O)N] | 4
Nc1ncnc(N)c1N=Nc1ccccc1 [MWAC-0001835, Nc1ncnc(N)c1N=Nc2ccccc2] | 6.65
CC1=CC(C)(C)N2C(=O)C3(Nc4ccccc4CO3)c3cc(C)cc1c32 (stereo not drawn) [MWAC-0001770, CC1=CC(C)(C)N2C(=O)C3(Nc4ccccc4CO3)c5cc(C)cc1c25] | 0.845
COc1ccc(-c2nnc(SCc3ccc4c(c3)OCO4)n2-c2ccccc2)cc1 [MWAC-0001881, COc1ccc(cc1)c2nnc(SCc3ccc4OCOc4c3)n2c5ccccc5] | 0
O=Cc1ccccc1OCc1ccc2c(c1)OCO2 [MWAC-0001842, O=Cc1ccccc1OCc2ccc3OCOc3c2] | 11
O=C1C(=O)N(Cc2ccc([N+](=O)[O-])cc2)c2ccc(Br)cc21 [MWAC-0001727, [O-][N+](=O)c1ccc(CN2C(=O)C(=O)c3cc(Br)ccc23)cc1] | 65
CC(C)c1cc(NC(=O)CCl)cc(C(C)C)c1O [MWAC-0001888, CC(C)c1cc(NC(=O)CCl)cc(C(C)C)c1O] | 80
CN(C)c1ccc(/C=N\Nc2cn[nH]c(=O)c2Cl)cc1 [MWAC-0001746, CN(C)c1ccc(\C=N/NC2=C(Cl)C(=O)NN=C2)cc1] | 15
COc1ccc2ccccc2c1/C=C1/S/C(=N/c2ccccc2Cl)NC1=O [MWAC-0001721, COc1ccc2ccccc2c1\C=C/3\S\C(=N\c4ccccc4Cl)\NC3=O] | 6
COc1ccc(CC(=O)N2CCC3(CC2)NC(=O)c2cc(Br)ccc2N3)cc1 [MWAC-0001841, COc1ccc(CC(=O)N2CCC3(CC2)NC(=O)c4cc(Br)ccc4N3)cc1] | 0
COCCCNC(=O)/C(C#N)=C/c1cc(C)n(-c2ccc(F)cc2)c1C [MWAC-0001826, COCCCNC(=O)\C(=C\c1cc(C)n(c1C)c2ccc(F)cc2)\C#N] | 5
CCCCOC(=O)c1c(C)oc2ccc(NS(=O)(=O)c3ccc(OC)cc3)cc12 [MWAC-0001742, CCCCOC(=O)c1c(C)oc2ccc(NS(=O)(=O)c3ccc(OC)cc3)cc12] | 11
CCOc1ccccc1OCC(=O)N/N=C/c1cc(C)ccc1O [MWAC-0001844, CCOc1ccccc1OCC(=O)N\N=C\c2cc(C)ccc2O] | 21
Cc1cc(C(=O)COn2nnc3ccc(Cl)cc32)c(C)n1-c1ccc2c(c1)OCO2 [MWAC-0001837, Cc1cc(C(=O)COn2nnc3ccc(Cl)cc23)c(C)n1c4ccc5OCOc5c4] | 26
COC(=O)CSC1=C(C#N)C(c2ccccc2OC)CC(=O)N1 (stereo not drawn) [MWAC-0001735, COC(=O)CSC1=C(C#N)C(CC(=O)N1)c2ccccc2OC] | 4.32
CCOCCCNC(=O)c1ccc(Cl)c([N+](=O)[O-])c1 [MWAC-0001781, CCOCCCNC(=O)c1ccc(Cl)c(c1)[N+](=O)[O-]] | 0
